From patent US10894797B2, “Fused tricyclic ring derivatives as SRC homology-2 phosphatase inhibitors” (Nikang Therapuetics, Inc., priority 2018, dated 2021)

Target: SHP2 (Homo sapiens (Human), UniProt Q06124)
Experiment: SHP2 allosteric inhibition assay (DiFMUP substrate, bisphos-IRS1 peptide activation)
Assay type: biochemical
Details: 0.33 nM SHP2, 0.5 μM bisphos-IRS1 peptide, 100 uM DiFMUP, room temperature
Method: At the basal state, SHP2 is auto-inhibited and access of substrates to the catalytic site is blocked by the […] interactions between the SH2 domains and the PTP domain. When bis-tyrosyl-phosphorylated peptides bind to SH2 domain of SHP2, the PTP domain becomes available for substrate recognition and reaction catalysis and SHP2 is allosterically activated. SHP2 catalytic activity can be measured using a fluorogenic artificial substrate DiFMUP.
The phosphatase reactions were carried out at room temperature in 384-well black polystyrene plates (Greiner Bio-One, Cat #784076) using assay buffers containing 60 mM HEPES, pH 7.2, 75 mM NaCl, 75 mM KCl, 1 mM EDTA, 0.05% P-20, and 5 mM DTT.
0.33 nM of SHP2 was co-incubated with of 0.5 μM of bisphos-IRS 1 peptide (sequence: H2N-LN(pY)IDLDLV(dPEG8)LST(pY)ASINFQK-amide) and various concentrations of compounds for 30-60 min at room temperature. Then the reaction was initiated by addition of the surrogate substrate DiFMUP (Invitrogen, Cat #D6567, 100 uM final).
The real-time conversion of DiFMUP to DiFMU (6,8-difluoro-7-hydroxyl-4-methyl-coumarin) was measured every 5 min for 30 min using a microplate reader (CLARIOstar, BMG Labtech) with excitation and emission wavelengths of 340 nm and 450 nm, respectively. Initial reaction rates were determined by linear fitting of the data and the inhibitor dose response curves were analyzed using normalized IC50 regression curve fitting with control-based normalization.

SHP2, sequence (Q06124 whole entry): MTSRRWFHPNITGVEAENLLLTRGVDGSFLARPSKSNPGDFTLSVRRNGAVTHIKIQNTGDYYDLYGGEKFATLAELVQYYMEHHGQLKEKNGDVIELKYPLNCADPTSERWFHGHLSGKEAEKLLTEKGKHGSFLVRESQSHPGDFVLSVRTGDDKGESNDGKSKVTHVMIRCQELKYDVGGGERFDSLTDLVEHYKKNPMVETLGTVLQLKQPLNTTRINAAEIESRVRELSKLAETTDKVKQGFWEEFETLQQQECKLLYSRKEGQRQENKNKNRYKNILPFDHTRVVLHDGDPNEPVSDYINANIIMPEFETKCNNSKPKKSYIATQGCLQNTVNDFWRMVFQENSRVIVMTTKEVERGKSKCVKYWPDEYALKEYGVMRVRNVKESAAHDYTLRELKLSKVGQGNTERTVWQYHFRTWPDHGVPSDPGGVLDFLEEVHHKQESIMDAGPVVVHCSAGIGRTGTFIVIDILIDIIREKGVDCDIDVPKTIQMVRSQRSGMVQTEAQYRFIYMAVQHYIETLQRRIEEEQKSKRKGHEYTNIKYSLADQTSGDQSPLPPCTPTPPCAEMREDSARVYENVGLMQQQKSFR

C[C@@H]1OCC2(CCN(c3ncc(Sc4ccnc5c4OC[C@@H]4C[C@H](O[C@@H]6CCOC6)CN54)nc3CO)CC2)[C@@H]1N [Compound 12, (3-((3S,4S)-4-amino-3-methyl-2-oxa-8-azaspiro[4.5]decan-8-yl)-6-(((6aS,8S)-8-(((R)-tetrahydrofuran-3-yl)oxy)-6a,7,8,9-tetrahydro-6H-pyrido[3,2-b]pyrrolo[1,2-d][1,4]oxazin-4-yl)thio)pyrazin-2-yl)methanol] and CO[C@H]1C[C@@H]2COc3c(Sc4cnc(N5CCC6(CC5)CO[C@@H](C)[C@H]6N)c(CO)n4)ccnc3N2C1 [Compound 10, (3-((3S,4S)-4-amino-3-methyl-2-oxa-8-azaspiro[4.5]decan-8-yl)-6-(((6aR,8S)-8-methoxy-6a,7,8,9-tetrahydro-6H-pyrido[3,2-b]pyrrolo[1,2-d][1,4]oxazin-4-yl)thio)pyrazin-2-yl)methanol] are within 1.5-fold of each other in IC50: 12 nM for the first, 10 nM for the second.

C[C@@H]1OCC2(CCN(c3ncc(Sc4ccnc5c4OC[C@@H]4C[C@H](OC(N)=O)CN54)nc3CO)CC2)[C@@H]1N [Compound 22, (6aS,8S)-4-((5-((3S,4S)-4-amino-3-methyl-2-oxa-8-azaspiro[4.5]decan-8-yl)-6-(hydroxymethyl)pyrazin-2-yl)thio)-6a,7,8,9-tetrahydro-6H-pyrido[3,2-b]pyrrolo[1,2-d]-[1,4]oxazin-8-yl carbamate] and C[C@@H]1OCC2(CCN(c3ncc(Sc4ccnc5c4OC[C@@H]4C[C@H](O)CN54)nc3CO)CC2)[C@@H]1N [Compound 7, (6aS,8S)-4-((5-((3S,4S)-4-amino-3-methyl-2-oxa-8-azaspiro[4.5]decan-8-yl)-6-(hydroxymethyl)pyrazin-2-yl)thio)-6a,7,8,9-tetrahydro-6H-pyrido[3,2-b]pyrrolo[1,2-d][1,4]oxazin-8-ol] are the same in IC50: 6 nM for the first, 6 nM for the second.

COCO[C@H]1C[C@H]2COc3c(Sc4cnc(N5CCC6(CC5)CO[C@@H](C)[C@H]6N)c(CO)n4)ccnc3N2C1 [Compound 14, (3-((3S,4S)-4-amino-3-methyl-2-oxa-8-azaspiro[4.5]decan-8-yl)-6-(((6aS,8S)-8-(methoxymethoxy)-6a,7,8,9-tetrahydro-6H-pyrido[3,2-b]pyrrolo[1,2-d][1,4]oxazin-4-yl)thio)pyrazin-2-yl)methanol] and COCOC[C@H]1C[C@@H]2COc3c(Sc4cnc(N5CCC6(CC5)CO[C@@H](C)[C@H]6N)c(CO)n4)ccnc3N2C1 [Compound 51, (3-((3S,4S)-4-amino-3-methyl-2-oxa-8-azaspiro[4.5]decan-8-yl)-6-(((6aR,8S)-8-((methoxymethoxy)methyl)-6a,7,8,9-tetrahydro-6H-pyrido[3,2-b]pyrrolo[1,2-d][1,4]oxazin-4-yl)thio)pyrazin-2-yl)methanol] are within 1.5-fold of each other in IC50: 5 nM for the first, 4.9 nM for the second.

C[C@@H]1OCC2(CCN(c3ncc(Sc4ccnc5c4OC[C@@H]4C[C@@H](n6cccn6)CN54)nc3CO)CC2)[C@@H]1N [Compound 25, (6-(((6aS,8R)-8-(1H-pyrazol-1-yl)-6a,7,8,9-tetrahydro-6H-pyrido[3,2-b]-pyrrolo[1,2-d][1,4]oxazin-4-yl)thio)-3-((3 S,4S)-4-amino-3-methyl-2-oxa-8-azaspiro[4.5]decan-8-yl)pyrazin-2-yl)methanol] and C[C@@H]1OCC2(CCN(c3ncc(Sc4ccnc5c4OC[C@@H]4C[C@H](n6cccn6)CN54)nc3CO)CC2)[C@@H]1N [Compound 24, (6-(((6aS,8S)-8-(1H-pyrazol-1-yl)-6a,7,8,9-tetrahydro-6H-pyrido[3,2-b]-pyrrolo[1,2-d][1,4]oxazin-4-yl)thio)-3-((3 S,4S)-4-amino-3-methyl-2-oxa-8-azaspiro[4.5]decan-8-yl)pyrazin-2-yl)methanol] are within 1.5-fold of each other in IC50: 11 nM for the first, 10 nM for the second.

Compared with C[C@@H]1OCC2(CCN(c3ncc(Sc4ccnc5c4OC[C@@H]4CC6(CC6)CN54)nc3CO)CC2)[C@@H]1N [Compound 17, (3-((3S,4S)-4-amino-3-methyl-2-oxa-8-azaspiro[4.5]decan-8-yl)-6-(((S)-6a′,7′-dihydro-6′H,9′H-spiro[cyclopropane-1,8′-pyrido[3,2-b]pyrrolo[1,2-d][1,4]oxazin]-4′-yl)thio)pyrazin-2-yl)methanol], C[C@@H]1OCC2(CCN(c3ncc(Sc4ccnc5c4OC[C@@H]4C[C@H](F)CN54)nc3CO)CC2)[C@@H]1N [Compound 3, (3-((3S,4S)-4-amino-3-methyl-2-oxa-8-azaspiro[4.5]decan-8-yl)-6-(((6aS,8S)-8-fluoro-6a,7,8,9-tetrahydro-6H-pyrido[3,2-b]pyrrolo[1,2-d][1,4]oxazin-4-yl)thio)pyrazin-2-yl)methanol] is 6.5-fold higher in IC50: 2 nM for the first, 13 nM for the second.

Going from C[C@@H]1OCC2(CCN(c3ncc(Sc4ccnc5c4OC[C@@H]4C[C@H](C#N)CN54)nc3CO)CC2)[C@@H]1N [Compound 20, (6aS,8S)-4-((5-((3S,4S)-4-amino-3-methyl-2-oxa-8-azaspiro[4.5]decan-8-yl)-6-(hydroxymethyl)pyrazin-2-yl)thio)-6a,7,8,9-tetrahydro-6H-pyrido[3,2-b]pyrrolo[1,2-d][1,4]oxazine-8-carbonitrile] to COC[C@@H]1C[C@H]2COc3c(Sc4cnc(N5CCC6(CC5)CO[C@@H](C)[C@H]6N)c(CO)n4)ccnc3N2C1 [Compound 30, (3-((3S,4S)-4-amino-3-methyl-2-oxa-8-azaspiro[4.5]decan-8-yl)-6-(((6aS,8R)-8-(methoxymethyl)-6a,7,8,9-tetrahydro-6H-pyrido[3,2-b]pyrrolo[1,2-d][1,4]oxazin-4-yl)thio)pyrazin-2-yl)methanol], the IC50 falls from 11 nM to 3.8 nM (2.9-fold). The second is the more potent here.

Compared with COCOCOC[C@H]1C[C@H]2COc3c(Sc4cnc(N5CCC6(CC5)CO[C@@H](C)[C@H]6N)c(CO)n4)ccnc3N2C1 [Compound 40, (3-((3 S,4S)-4-Amino-3-methyl-2-oxa-8-azaspiro[4.5]decan-8-yl)-6-(((6aS,8S)-8-(((methoxymethoxy)methoxy)methyl)-6a,7,8,9-tetrahydro-6H-pyrido[3,2-b]pyrrolo[1,2-d][1,4]oxazin-4-yl)thio)pyrazin-2-yl)methanol], COCOC[C@@H]1C[C@H]2COc3c(Sc4cnc(N5CCC6(CC5)CO[C@@H](C)[C@H]6N)c(CO)n4)ccnc3N2C1 [Compound 50, (3-((3S,4S)-4-amino-3-methyl-2-oxa-8-azaspiro[4.5]decan-8-yl)-6-(((6aS,8R)-8-((methoxymethoxy)methyl)-6a,7,8,9-tetrahydro-6H-pyrido[3,2-b]pyrrolo[1,2-d][1,4]oxazin-4-yl)thio)pyrazin-2-yl)methanol] is 1.7-fold lower in IC50: 5.9 nM for the first, 3.5 nM for the second.

Going from COCOC[C@H]1C[C@H]2COc3c(Sc4cnc(N5CCC6(CC5)Cc5ncccc5[C@H]6N)cn4)ccnc3N2C1 [Compound 46, (S)-1′-(5-(((6aS,8S)-8-((methoxymethoxy)methyl)-6a,7,8,9-tetrahydro-6H-pyrido[3,2-b]pyrrolo[1,2-d][1,4]oxazin-4-yl)thio)pyrazin-2-yl)-5,7-dihydrospiro[cyclopenta[b]pyridine-6,4′-piperidin]-5-amine] to COCOC[C@H]1C[C@H]2COc3c(Sc4ncc(N5CCC6(CC5)CO[C@@H](C)[C@H]6N)nc4N)ccnc3N2C1 [Compound 44, (3S,4S)-8-(6-amino-5-(((6aS,8S)-8-((methoxymethoxy)methyl)-6a,7,8,9-tetrahydro-6H-pyrido[3,2-b]pyrrolo[1,2-d][1,4]oxazin-4-yl)thio)pyrazin-2-yl)-3-methyl-2-oxa-8-azaspiro[4.5]decan-4-amine], the IC50 rises from 3.9 nM to 5.9 nM (1.5-fold). The first is the more potent here.

Compared with C[C@@H]1OCC2(CCN(c3ncc(Sc4cc(N)nc5c4OC[C@@H]4CCCN54)nc3CO)CC2)[C@@H]1N [Compound 35, formic acid; (3-((3S,4S)-4-amino-3-methyl-2-oxa-8-azaspiro[4.5]decan-8-yl)-6-(((S)-2-amino-6a,7,8,9-tetrahydro-6H-pyrido[3,2-b]pyrrolo[1,2-d][1,4]oxazin-4-yl)thio)pyrazin-2-yl)methanol], COCOC[C@H]1C[C@H]2COc3c(Sc4nc(CO)c(N5CCC6(CC5)CO[C@@H](C)[C@H]6N)nc4C)ccnc3N2C1 [Compound 49, (3-((3S,4S)-4-amino-3-methyl-2-oxa-8-azaspiro[4.5]decan-8-yl)-6-(((6aS,8S)-8-((methoxymethoxy)methyl)-6a,7,8,9-tetrahydro-6H-pyrido[3,2-b]pyrrolo[1,2-d][1,4]oxazin-4-yl)thio)-5-methylpyrazin-2-yl)methanol] is 1.5-fold lower in IC50: 18 nM for the first, 12 nM for the second. The second is the more potent here.

With COCOC[C@H]1C[C@H]2COc3c(Sc4cnc(N5CCC6(CC5)COC5(CCC5)[C@H]6N)c(CO)n4)ccnc3N2C1 [Compound 39, (3-((S)-5-amino-13-oxa-9-azadispiro[3.1.5^6.2^4]tridecan-9-yl)-6-(((6aS,8S)-8-((methoxymethoxy)methyl)-6a,7,8,9-tetrahydro-6H-pyrido[3,2-b]pyrrolo[1,2-d][1,4]oxazin-4-yl)thio)pyrazin-2-yl)methanol] the IC50 was 7 nM.

C[C@@H]1OCC2(CCN(c3ncc(Sc4ccnc5c4OC[C@@H]4C[C@](C)(O)CN54)nc3CO)CC2)[C@@H]1N (single isomer, unassigned) [Compound 18] was tested, and the “Shp2 IC50(nM)” value was “one of 21 and 22 is 13 and the other is 8”.
For C[C@@H]1OCC2(CCN(c3ncc(Sc4ccnc5c4OC[C@@H]4C[C@@](C)(O)CN54)nc3CO)CC2)[C@@H]1N (single isomer, unassigned) [Compound 19], the “Shp2 IC50(nM)” value was “one of 21 and 22 is 13 and the other is 8”.
